In assay [1] the test system is Caski cells. Put plainly: SA-beta-gal senescence assay in Caski cells. The settings on record: 72 hours, versus vehicle. The class given is cell-based, human. As for the experimental part:
(§1) This was specific to Caski cells and was not observed in RPE-1, HeLa cells, or the HPV negative control cell lines C33a and HaCat (Figures S2A,B ). […] As observed in the viability assay, this occurred in both the HPV positive and negative cell lines. […] These cell lines were also assayed for apoptosis.
(§2) 12,000 cells per cm^2 were plated in 24-well dishes; after 24 hours, fresh media and compound were added. SA-beta gal staining was performed as described. Images were collected using bright field microscopy. At least four fields (~100 cells per field) were read for each treatment, and experiments were repeated 3 times. The percent SA-beta-gal positive cells was calculated for each data point.

Assay [2] relates to RPE-1 cells. Put plainly: p53/p21 immunoblot analysis in RPE-1 cells. The format is cell-based, human. The note with it: RPE-1 (HPV negative), 40 hours. As for the experimental part: (§3) Caski cells, which are derived from an HPV-16 infected cervical carcinoma and express HPV-16 E6 and E7, were used to determine whether these compounds interfere with HPV-16 E6 function. Inhibition of E6 should block its ability to promote the degradation of p53 thereby increasing the levels of p53. […] These compounds were also assayed in telomerase immortalized human retinal epithelial cells (RPE-1). […] If the elevation in p53 is dependent on the inhibition of E6 by these compounds, p53 should not increase in the RPE-1 cells.
(§4) 20,000 cells per cm^2 were plated in 6-well dishes. Cells were incubated for 24 hours at which time fresh media and compound were added. After 40 hours, cells were harvested, washed with cold PBS, and lysed in RIPA buffer with protease inhibitor. Each sample was separated on a 12% SDS-page gel, transferred to Immobilon-P membrane (Millipore) and blotted for the p53 (DO-1, Santa Cruz), p21 (c-19, Santa Cruz), and actin (A2066, Sigma). Protein quantification was performed with the Fujifilm LAS-4000 Multifunctional Imaging System. The signal intensity was measured for each band on an immunoblot, normalized to the loading control, and the fold increase was determined in relation to the appropriate DMSO treated control. RNA was isolated from these cells using Trizol Reagent (Invitrogen 15596-026). cDNA was generated using the Improm-II Reverse Transcription System (Promega A3801). qPCR was performed as described in the protocol for SsoFast EvaGreen supermix (BioRad 172-5023) using an BioRad CFX96 real-time PCR machine. Melting curves for each reaction were obtained. Each sample was assayed in triplicate and every plate contained a 5-point cDNA dilution course to calculate amplification efficiency for each primer pair. The Pfaffl method was used to determine the change in transcript levels relative to the DMSO and normalized to GAPDH.

Assay [3] concerns primary human foreskin keratinocytes. As to the kind of experiment: p53/p21 immunoblot analysis in primary HFKs. The class given is cell-based. The settings on record: 40 hours. The protocol:
(§5) Each compound was used to treat primary HFKs or HFKs immortalized through the over-expression of HPV16 E6 and E7 proteins.
as §4

For assay [4], the system named is E6/E7 immortalized human foreskin keratinocytes. Put plainly: p53/p21 immunoblot analysis in E6/E7 immortalized HFKs. The format is cell-based. The settings on record: 40 hours. As for the experimental part: as §5, §4
Assay [5] concerns the target T1, MBP-E6 (Human papillomavirus type 16, UniProt P03126).
T1 construct: made in house; host or cells: E. coli BL21DE(3)
As to the kind of experiment: thermal shift (Sypro Orange) assay. The format is binding, HPV-16. The note with it: versus DMSO; for effect on Tm of MBP-E6: 5-150 µM tested. The protocol: A thermal shift assay was used to assess compound binding to HPV E6. In this reaction, protein denaturation is measured by an increase in fluorescence from Sypro Orange as it binds to the newly exposed hydrophobic surfaces on the protein [48]. A protein stability curve is created as a measure of the rate of protein unfolding. The relative fluorescence is plotted against temperature and the melting temperature (Tm) is determined by calculating the temperature of peak fluorescence. Ligand binding can stabilize the protein and increase the Tm. The thermal profile of MBP-E6 proteins was investigated to determine if the flavonoid derivatives could stabilize MBP-E6 protein structure during heat-induced unfolding. […] The change in Tm (∆Tm) was plotted for each compound and compared to DMSO (Figure 10F,G ).
MBP-16E6 DNA, a kind gift from G. Travé [58], was transformed into BL21DE(3) E. coli. Protein expression was performed by inoculation of a 1 mL starter culture in 100 mL of Turbo-Broth containing 0.2 % lactose, 0.05% glucose and 0.6% glycerol at 20°C for 24 hrs. Cells were lysed in 50 mM Tris HCl pH 6.8, 300 mM NaCl, 0.1 % (v/v) NP-40, 2 mM DTT and 1x protease inhibitor cocktail (EDTA-free, Roche) and sonicated as described before. Cell lysate was cleared by centrifugation at 15000xg, 4°C for 30 min and equilibrated with amylose resin beads (New England Biolabs, Inc.) by inversion for 3 hrs at 4°C. Bound beads were washed one time in lysis buffer and four times with wash buffer (50 mM Tris-HCl pH 6.8, 400 mM NaCl, 2 mM DTT, 1x protease inhibitor cocktail). Bound MBP-E6 proteins were eluted using a final concentration of 20 mM maltose in 5 bed volumes of wash buffer. All steps were performed at 4°C. Protein concentration was measured by BCA (BioRad). Thermostability of MBP-E6 proteins was analyzed at a final concentration of 1 µM in reaction buffer (50 mM TrisHCl pH 6.8, 400 mM NaCl, 2 mM DTT). MBP-E6 proteins were equilibrated with CAF-8 (5 µM-150 µM), CAF-24 (5 µM-150 µM), CAF-26 (5 µM-150 µM) or DMSO for 30 min in reaction buffer. Sypro Orange, a hydrophobic fluorescent dye, was added at the end of the incubation period at a final concentration of 5X. The final DMSO concentration (1.8% v/v) was kept constant across the concentration range. Fluorescence was measured using the FRET channel of CFX96 Real-Time PCR thermal cycler (BioRad) over a temperature range of 25°C to 95°C. Temperature increments were set to 0.5°C for 30 sec followed by plate reading. Melt curves were determined in triplicate and repeated four times. Melt curves represent the relative fluorescence of the 1st derivative of four experiments. Melting temperature (Tm) was calculated by CFX manager software. The average melting temperature of the triplicate was used to calculate the ∆Tm for each experiment. ∆Tm values are expressed as the change vs. DMSO.

For assay [6], the system named is Caski cells. As to the kind of experiment: p53/p21 immunoblot analysis in Caski cells. The format is cell-based, human. The settings on record: 40 hours. The protocol:
as §3, §4

Assay [7] concerns RPE-1, HeLa, C33a and HaCat cells. Put plainly: SA-beta-gal senescence assay in other cell lines. The class given is cell-based, human. The settings on record: 72 hours. The protocol: as §1, §2
Assay [8] concerns caspases 3 and 7. Put plainly: Caspase-Glo 3/7 apoptosis assay. The format is cell-based, human. The settings on record: 4 – 48 hours. As for the experimental part: as §1
For cell viability, 12,000 cells per cm^2 were plated in 96-well dishes 24 hours prior to drug addition. Fresh media and compound were added. Plates were read after 72-96 hours. Relative cell viability was assayed as directed in the Celltiter 96 AQueous one solution assay (Promega). For caspase activity, plates were assayed after 4, 8, 12, 24, or 48 hours as described for the Caspase-Glo 3/7 assay (Promega).

SMILES strings stand for the structures. “Also recorded” adds a separate entry of the source.

T1 sequence (P03126 whole entry): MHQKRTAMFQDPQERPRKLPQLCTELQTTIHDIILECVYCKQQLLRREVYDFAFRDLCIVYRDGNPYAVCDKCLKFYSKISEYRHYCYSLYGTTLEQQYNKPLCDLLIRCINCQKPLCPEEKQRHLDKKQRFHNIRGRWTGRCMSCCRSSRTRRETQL

Consider `COc1cccc(-c2cc(=O)c3cc(-c4nnn[nH]4)ccc3o2)c1` [CAF-24], for which the SA-β-gal staining result in assay [1] is “increased more than two-fold”; in assay [7], “not observed”. For the same molecule, the p21 protein levels result in assay [2] is “did not induce increased levels of p53 or p21 proteins”; in assay [3], “little effect on p53 and p21 levels”; in assay [4], “increased p53 and p21 protein levels”. The p53 protein levels entry was “did not induce increased levels of p53 or p21 proteins” in assay [2]; “little effect on p53 and p21 levels” in assay [3]; “increased p53 and p21 protein levels” in assay [4]; “increased p53 levels” in assay [6]. For the same molecule, the “effect on Tm of MBP-E6” value in assay [5] was “about 1 °C”. Moreover, in assay [5] (at 25, 50 and 150 µM), the “shift of MBP-E6 Tm” value is around 1 °C. Further, in assay [6], the “p21^Cip1/Waf1 protein levels” value is recorded as “concomitant induction”. Further, the “caspase 3 and 7 activity” value in assay [8] is listed as “did not observe increased caspase activity”.
Consider `O=c1cc(-c2ccc(O)c(O)c2)oc2cc(O)cc(O)c12` [luteolin, reference compound], for which the SA-β-gal staining entry in assay [1] and in assay [7] was “no significant increase in β-gal staining” each time. Also, the p53 protein levels result in assay [2] is “increase in p53 protein levels, but only at concentrations higher than was required to increase p53 and p21 levels in the Caski cells”; in assay [3], “E6 independent increase in p53 and p21”; in assay [4], “increased p53 and p21 protein levels”; in assay [6], “increased p53 levels”. Further, the p21 protein levels entry in assay [3] was “E6 independent increase in p53 and p21”; in assay [4] it was “increased p53 and p21 protein levels”. In addition, the “effect on Tm of MBP-E6” value in assay [5] is “no effect on the Tm of MBP-E6; also recorded: did not shift the Tm of MBP-E6”. Further, in assay [6], the “p21^Cip1/Waf1 protein levels” value was “concomitant induction”. In addition, in assay [8], the “caspase 3 and 7 activity” value was “did not observe increased caspase activity”.
